Results as given in ChEMBL document CHEMBL1201862, “PubChem BioAssay data set” (2004).
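Exposure lasted 48 hours, with cells grown in 96-well plates and compounds tested at five concentrations. GI50 is the concentration that inhibits growth by half.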 The source made the active and inactive calls. Cut-off read from the data, not from the text of the source: active = GI50 up to about 1.1 µM and inactive = higher.

Tests used:
Assay in all cases: NCI-60 cell line screen, 48 h
[1] = tested on: 786-0
[2] = tested on: A549
[3] = tested on: CCRF-CEM
[4] = tested on: DU-145
[5] = tested on: HOP-62
[6] = tested on: HT-29
[7] = tested on: Hs-578T
[8] = tested on: K562
[9] = tested on: MDA-MB-231
[10] = tested on: MDA-MB-435
[11] = tested on: OVCAR-3
[12] = tested on: OVCAR-4
[13] = tested on: PC-3
[14] = tested on: RPMI-8226
[15] = tested on: RXF 393
[16] = tested on: SF-268
[17] = tested on: SF-539
[18] = tested on: SK-MEL-28
[19] = tested on: UACC-257
[20] = tested on: UO-31

O=C(Nc1cnc(O)nc1O)Oc1ccccc1
GI50 [1]: > 100 µM (inactive)
GI50 [2]: > 100 µM (inactive)
GI50 [3]: > 100 µM (inactive)
GI50 [4]: > 100 µM (inactive)
GI50 [5]: > 100 µM (inactive)
GI50 [6]: > 100 µM (inactive)
GI50 [7]: > 100 µM (inactive)
GI50 [8]: > 100 µM (inactive)
GI50 [9]: > 100 µM (inactive)
GI50 [10]: > 100 µM (inactive)
GI50 [11]: > 100 µM (inactive)
GI50 [12]: > 100 µM (inactive)
GI50 [13]: > 100 µM (inactive)
GI50 [14]: > 100 µM (inactive)
GI50 [15]: > 100 µM (inactive)
GI50 [16]: > 100 µM (inactive)
GI50 [17]: > 100 µM (inactive)
GI50 [18]: > 100 µM (inactive)
GI50 [19]: > 100 µM (inactive)
GI50 [20]: > 100 µM (inactive)

CO[C@H]1C[C@@H]2CC[C@@H](C)[C@@](O)(O2)C(=O)C(=O)N2CCCC[C@H]2C(=O)O[C@H]([C@H](C)C[C@@H]2CC[C@@H](OC(=O)C(C)(CO)CO)[C@H](OC)C2)CC(=O)[C@H](C)/C=C(\C)[C@@H](O)[C@@H](OC)C(=O)[C@H](C)C[C@H](C)/C=C/C=C/C=C/1C [TEMSIROLIMUS]
GI50 [1]: 0.00312 µM (active)
GI50 [2]: 0.0301 µM (active)
GI50 [3]: 0.00177 µM (active)
GI50 [4]: 0.0975 µM (active)
GI50 [5]: 0.00125 µM (active)
GI50 [6]: 0.0376 µM (active)
GI50 [7]: 0.00724 µM (active)
GI50 [8]: 0.0228 µM (active)
GI50 [9]: 0.0217 µM (active)
GI50 [10]: 0.0243 µM (active)
GI50 [11]: 0.00183 µM (active)
GI50 [12]: 0.0247 µM (active)
GI50 [13]: 0.00123 µM (active)
GI50 [14]: 0.000292 µM (active)
GI50 [15]: 0.0034 µM (active)
GI50 [16]: 0.00873 µM (active)
GI50 [17]: 0.00873 µM (active)
GI50 [18]: 0.0298 µM (active)
GI50 [19]: 1.99 µM (inactive)
GI50 [20]: 0.00496 µM (active)

Cc1cc2c3ccccc3n(C)c2c2c1C(=O)C=CC2=O
GI50 [1]: 5.78 µM (inactive)
GI50 [2]: 40.4 µM (inactive)
GI50 [3]: 2.42 µM (inactive)
GI50 [4]: 21.7 µM (inactive)
GI50 [5]: 22.4 µM (inactive)
GI50 [6]: 9.62 µM (inactive)
GI50 [7]: 22.3 µM (inactive)
GI50 [8]: 5.33 µM (inactive)
GI50 [9]: 15.3 µM (inactive)
GI50 [10]: 18.9 µM (inactive)
GI50 [11]: 15 µM (inactive)
GI50 [12]: 7.29 µM (inactive)
GI50 [13]: 9.91 µM (inactive)
GI50 [14]: 1.58 µM (inactive)
GI50 [15]: 6.64 µM (inactive)
GI50 [16]: 17.2 µM (inactive)
GI50 [17]: 21.6 µM (inactive)
GI50 [18]: 21.5 µM (inactive)
GI50 [19]: 13.2 µM (inactive)
GI50 [20]: 21.8 µM (inactive)

CC1OC(O[C@H]2CC[C@]3(C=O)[C@H]4CC[C@]5(C)[C@H](C6=CC(=O)OC6)CC[C@]5(O)[C@@H]4C=C[C@]3(O)C2)CC(O)C1O (stereo not given in full)
GI50 [1]: 0.0871 µM (active)
GI50 [2]: 0.113 µM (active)
GI50 [3]: 0.102 µM (active)
GI50 [4]: 0.128 µM (active)
GI50 [5]: 0.188 µM (active)
GI50 [6]: 0.321 µM (active)
GI50 [7]: 0.239 µM (active)
GI50 [8]: 0.294 µM (active)
GI50 [9]: 0.433 µM (active)
GI50 [10]: 0.346 µM (active)
GI50 [11]: 0.15 µM (active)
GI50 [12]: 0.349 µM (active)
GI50 [13]: 0.306 µM (active)
GI50 [14]: 0.136 µM (active)
GI50 [15]: 0.0661 µM (active)
GI50 [16]: 0.176 µM (active)
GI50 [17]: 0.169 µM (active)
GI50 [18]: 0.692 µM (active)
GI50 [19]: 0.579 µM (active)
GI50 [20]: 0.214 µM (active)

Cc1cc(C23OC4COC(C)(C)OC4C2OC(C)(C)O3)nc2ccccc12 (stereo not given)
GI50 [1]: > 100 µM (inactive)
GI50 [2]: > 100 µM (inactive)
GI50 [3]: 32.1 µM (inactive)
GI50 [4]: > 100 µM (inactive)
GI50 [5]: > 100 µM (inactive)
GI50 [6]: 76.6 µM (inactive)
GI50 [7]: 82.2 µM (inactive)
GI50 [8]: 44.1 µM (inactive)
GI50 [9]: > 100 µM (inactive)
GI50 [10]: > 100 µM (inactive)
GI50 [11]: > 100 µM (inactive)
GI50 [12]: > 100 µM (inactive)
GI50 [13]: 78.2 µM (inactive)
GI50 [14]: > 100 µM (inactive)
GI50 [15]: > 100 µM (inactive)
GI50 [16]: > 100 µM (inactive)
GI50 [17]: > 100 µM (inactive)
GI50 [18]: > 100 µM (inactive)
GI50 [19]: > 100 µM (inactive)
GI50 [20]: > 100 µM (inactive)

COc1ccc(C[C@@H](C(=O)O[C@H](C)[C@H](NC(=O)[C@@H](CC(C)C)N(C)C(=O)C2CCCN2C(=O)[C@H](C)O)C(=O)N2CCCCNC(=O)[C@@H](C)C(=O)[C@H](C(C)C)OC(=O)C[C@H](O)[C@H]2CC(C)C)N(C)C(C)=O)cc1 (stereo not given in full)
GI50 [1]: 12.4 µM (inactive)
GI50 [2]: 13.2 µM (inactive)
GI50 [3]: 8.61 µM (inactive)
GI50 [4]: 11.4 µM (inactive)
GI50 [5]: 13.4 µM (inactive)
GI50 [6]: 3.27 µM (inactive)
GI50 [7]: 4.11 µM (inactive)
GI50 [8]: 8.05 µM (inactive)
GI50 [9]: 9.35 µM (inactive)
GI50 [10]: 16.7 µM (inactive)
GI50 [11]: 14 µM (inactive)
GI50 [12]: 7.83 µM (inactive)
GI50 [13]: 15.8 µM (inactive)
GI50 [14]: 9.08 µM (inactive)
GI50 [15]: 5.2 µM (inactive)
GI50 [16]: 17.8 µM (inactive)
GI50 [17]: 5.18 µM (inactive)
GI50 [18]: 4.13 µM (inactive)
GI50 [19]: 17.5 µM (inactive)
GI50 [20]: 36.1 µM (inactive)

CCC(=O)Oc1ccc2c(c1)c(=O)c1c(NCCCN(C)C)ccc3nnn2c31
GI50 [1]: 0.361 µM (active)
GI50 [2]: 0.275 µM (active)
GI50 [3]: 0.127 µM (active)
GI50 [4]: 1.04 µM (active)
GI50 [5]: 1.53 µM (inactive)
GI50 [6]: 0.69 µM (active)
GI50 [7]: 5.56 µM (inactive)
GI50 [8]: 0.726 µM (active)
GI50 [9]: 3.44 µM (inactive)
GI50 [10]: 2.79 µM (inactive)
GI50 [11]: 7 µM (inactive)
GI50 [12]: 0.548 µM (active)
GI50 [13]: 2.48 µM (inactive)
GI50 [14]: 0.767 µM (active)
GI50 [15]: 1.83 µM (inactive)
GI50 [16]: 1.8 µM (inactive)
GI50 [17]: 1.71 µM (inactive)
GI50 [18]: 10.9 µM (inactive)
GI50 [19]: 10.6 µM (inactive)
GI50 [20]: 0.953 µM (active)

CC(=O)O[C@H]1C(=O)[C@@]2(C)C([C@H](OC(=O)c3ccccc3)[C@]3(O)C[C@H](OC(=O)[C@H](O)[C@@H](NC(=O)c4ccc(Cl)cc4)c4ccccc4)C(C)=C1C3(C)C)C1(OC(C)=O)CO[C@@H]1C[C@@H]2O (stereo not given in full)
GI50 [1]: 0.123 µM (active)
GI50 [2]: 0.168 µM (active)
GI50 [3]: < 0.01 µM (active)
GI50 [4]: 0.0865 µM (active)
GI50 [5]: 0.474 µM (active)
GI50 [6]: 0.03 µM (active)
GI50 [7]: 0.0188 µM (active)
GI50 [8]: > 25 µM (inactive)
GI50 [9]: 0.265 µM (active)
GI50 [10]: 0.00507 µM (active)
GI50 [11]: 0.0346 µM (active)
GI50 [12]: 7.21 µM (inactive)
GI50 [13]: 0.0615 µM (active)
GI50 [14]: < 0.01 µM (active)
GI50 [15]: 1.02 µM (active)
GI50 [16]: 0.156 µM (active)
GI50 [17]: 0.0689 µM (active)
GI50 [18]: 0.114 µM (active)
GI50 [19]: 0.109 µM (active)
GI50 [20]: 11.1 µM (inactive)

CC(=O)OC1CC2(C)C(=CC1C1SCCS1)CCC1C2CCC2(C)C(OC(C)=O)CCC12 (stereo not given)
GI50 [1]: > 100 µM (inactive)
GI50 [2]: > 100 µM (inactive)
GI50 [3]: > 100 µM (inactive)
GI50 [4]: > 100 µM (inactive)
GI50 [5]: 97.5 µM (inactive)
GI50 [6]: > 100 µM (inactive)
GI50 [7]: 14.6 µM (inactive)
GI50 [8]: > 100 µM (inactive)
GI50 [9]: 34.9 µM (inactive)
GI50 [10]: > 100 µM (inactive)
GI50 [11]: > 100 µM (inactive)
GI50 [12]: > 100 µM (inactive)
GI50 [13]: > 100 µM (inactive)
GI50 [14]: > 100 µM (inactive)
GI50 [15]: 19.3 µM (inactive)
GI50 [16]: 26.5 µM (inactive)
GI50 [17]: 53.1 µM (inactive)
GI50 [18]: > 100 µM (inactive)
GI50 [19]: > 100 µM (inactive)
GI50 [20]: > 100 µM (inactive)
